One test relates to THP-1 cells. Briefly: THP-1 differentiation induction-promoting activity. The format is cell-based. The settings on record: Homo sapiens, THP-1; lowest concentration necessary to show 50% activity relative to the activity value of erythromycin A at 100 μM; PMA 1-2 μM, 72-96 hr. The protocol:
As one index of the anti-inflammatory action of the compound of the present invention, the differentiation induction-promoting activity of THP-1 cell was measured. The measurement was performed as shown below.
THP-1 cells (ATCC No. TIB-202) were adjusted to a concentration of 2×10^5 cells/ml with a medium (RPMI 1640), PMA was added thereto to a final concentration of 1-2 μM, and the mixture was dispensed to each well of a 96 well plate by 100 μl. A solution (100 μl) containing a test substance was adjusted to an appropriate concentration with the medium and added to each well. The mixture was stirred by gently shaking the plate, and incubated under 37° C., 5% CO2 conditions for 72-96 hr. Each well was washed with PBS, a medium containing the viable cell measurement reagent SF (Nacalai Tesque) was added at 100 μl/well and the mixture was incubated under the conditions of 37° C., 5% CO2 for 3-5 hr. The absorbance was measured with a plate reader.
In the Table, the activity value is the lowest concentration necessary for the test compound to show a 50% activity value relative to the activity value of erythromycin A at 100 μM in this experiment.
THP-1 differentiation induction-promoting activity: The lowest concentration necessary for each compound to show 50% activity relative to the activity value of erythromycin A at 100 μM.

A further test concerns E. aerogen NCTC10006. Briefly: antibacterial activity, MIC (NCCLS method). It is filed as cell-based. The protocol:
(§1) The antibacterial activity of the compound of the present invention and erythromycin were measured according to the antibacterial sensitivity measurement method of the US National Committee for Clinical Laboratory Standards (NCCLS). The values of minimum inhibitory concentration (MIC) (μg/ml) of each compound against bacteria are shown therein.

The test system of another test is M. luteus ATCC9341. Briefly: antibacterial activity, MIC (NCCLS method). It is filed as cell-based. The settings on record: Micrococcus luteus, ATCC9341. The protocol: as §1
The test system of another test is K. pneumoniae NCTN9632. Description: antibacterial activity, MIC (NCCLS method). It is filed as cell-based. The settings on record: Klebsiella pneumoniae, NCTN9632. The protocol: as §1
Another test relates to S. aureus 8325 (pEP2104). Description: antibacterial activity, MIC (NCCLS method). It is filed as cell-based. As to conditions: Staphylococcus aureus. The protocol:
as §1

Another test deals with A. calcoaceticus IFO2552. Description: antibacterial activity, MIC (NCCLS method). The format is cell-based. As to conditions: Acinetobacter calcoaceticus, IFO2552. Here is the method:
as §1

A further test relates to E. faecalis ATCC21212. Briefly: antibacterial activity, MIC (NCCLS method). It is filed as cell-based. The settings on record: Enterococcus faecalis, ATCC21212. Here is the method:
as §1

A further test has as its system S. aureus FDA209P. Description: antibacterial activity, MIC (NCCLS method). It is filed as cell-based. The settings on record: Staphylococcus aureus, FDA209P. The protocol:
as §1

The next test concerns S. epidermidis IFO12648. Briefly: antibacterial activity, MIC (NCCLS method). It is filed as cell-based. The settings on record: Staphylococcus epidermidis, IFO12648. The protocol:
as §1

The test system of the next test is E. coli NIHJ JC-2. Briefly: antibacterial activity, MIC (NCCLS method). As to conditions: Escherichia coli, NIHJJC2. The format is cell-based. Here is the method:
as §1

The test system of the next test is S. marcescens IFO12648. Description: antibacterial activity, MIC (NCCLS method). The format is cell-based. As to conditions: Serratia marcescens, IFO12648. The protocol:
as §1

The next test has as its system S. aureus Smith. Description: antibacterial activity, MIC (NCCLS method). It is filed as cell-based. As to conditions: Staphylococcus aureus. The protocol:
as §1

Test [1] concerns trinitrobenzene sulfonate (TNBS)-induced colitis. Briefly: TNBS-induced colitis in rats, damage of the large intestine scored by the method of Wallace et al. The format is in vivo. The settings on record: rat TNBS colitis, oral, control 4.27 ± 0.38. The protocol:
As an index of the treatment effect of the compound of the present invention on ulcerative colitis and Crohn's disease, an action on trinitrobenzene sulfonate (hereinafter to be indicated as TNBS)-induced colitis was examined using rats. Using 8-week-old male SD rats under pentobarbital anesthesia, TNBS solution was injected into the rectum of animals after fasting for 24 hr or longer and abstaining from water for 5 hr or longer. After injection, a silicone stopper was inserted into the anus to perform a treatment for 3.5-4 hr, whereby a colitis model was prepared. Two days after TNBS administration, model animals were selected based on the fecal occult blood score (fecal occult blood slide 5 shionogi II, Shionogi & Co. Ltd.), body weight and body weight changes, feeding condition, observation score of around anus and bleeding. A test drug was orally administered to the model animals two times a day for 6 days. On the next day of the final drug administration, the large intestine (about 15 cm from the anus) was removed after decapitation and exsanguination, and the level of damage was scored by the method of Wallace et al. (Wallace, J. L. et al, Inhibition of leukotriene synthesis markedly accelerates healing in a rat model of inflammatory bowel disease. Gastroenterology 96, 2936 (1989)), based on which the efficacy was evaluated.

[2] abbreviates: dose 10 × 2 (mg/kg)/day for 6 days.
[3] abbreviates: dose 30 × 2 (mg/kg)/day for 6 days.

Molecules are shown by their SMILES. Bounds are passed on as bounds.

Broadly, the minimal effective concentration is the lowest level tested that produced the effect sought. A high value points to weaker potency. Broadly, the MIC is the lowest concentration found to suppress growth. In the test with THP-1 cells, `CC[C@@H](O)[C@@](C)(O)[C@@H]1OC(=O)[C@H](C)[C@@H](O[C@H]2CC(C)(OC)[C@@H](O)C(C)O2)[C@H](C)[C@H](O[C@@H]2OC(C)CC(N(C)Cc3ccc(Cl)cc3)C2O)[C@@]2(C)CC(C)C(O2)[C@@H]1C` (some centres unmarked) [EM905, de(3′-N-methyl)-3′-N-(p-chlorobenzyl)-9-dihydro-pseudoerythromycin A 6,9-epoxide] registered a minimal effective concentration of 3 µM. The minimum inhibitory concentration (MIC) in the test on E. aerogen NCTC10006, against M. luteus ATCC9341, against K. pneumoniae NCTN9632, in the test on S. aureus 8325 (pEP2104), with A. calcoaceticus IFO2552 and with E. faecalis ATCC21212 was above 128 µg/mL each time. Also, the MIC against S. aureus FDA209P, in the test with S. epidermidis IFO12648, with E. coli NIHJ JC-2, in the test on S. marcescens IFO12648 and in the test on S. aureus Smith was above 128 µg/mL each time. Further, the figures for the “Inflammation score in ulcer” value in [1] (setting [2]) and in test [1] (setting [3]) were 3.29 ± 0.22 and 2.67 ± 0.40, respectively.

In turn, `CC[C@@H](O)[C@@](C)(O)[C@@H]1OC(=O)[C@H](C)[C@@H](O[C@H]2CC(C)(OC)[C@@H](O)C(C)O2)[C@H](C)[C@@H](O[C@@H]2OC(C)CC(N3CCOCC3)C2O)[C@]2(C)CC(C)C(O2)[C@@H]1C` (some centres unmarked) [EM914, de(3′-dimethylamino)-3′-morpholino-9-dihydro-pseudoerythromycin A 6,9-epoxide] registered a minimal effective concentration in the test on THP-1 cells of 100 µM. Also, the MIC in the test on E. aerogen NCTC10006, in the test on K. pneumoniae NCTN9632, in the test with S. aureus 8325 (pEP2104), in the test with A. calcoaceticus IFO2552, against E. faecalis ATCC21212 and in the test with S. aureus FDA209P was above 128 µg/mL in each case. The MIC against E. coli NIHJ JC-2, with S. marcescens IFO12648 and in the test with S. aureus Smith was above 128 µg/mL in each case. Also, the “Inflammation score in ulcer” value in test [1] (setting [2]) is given as 2.93 ± 0.41; in [1] (setting [3]) it was 2.69 ± 0.33.

These data come from US8133871B2, “Dihydropseudoerythromycin derivatives” (The Kitasato Institute, priority 2005, dated 2012).
